Test results taken from the NIST ThermoML archive (doi:10.1016/j.jct.2008.01.010).
“And” between values parts separate entries of the source, which are not always exact repeats. Equal values may be shown once. Numbers after ± are expanded uncertainties.

Details: Crystal; for mass density: 298.15 K, 101.33 kPa, Pycnometric method; for vapor or sublimation pressure: Calculated from knudsen effusion weight loss

Oc1nncc2ccccc12 [1(2H)-phthalazinone]
Details	mass density [kg/m3]	vapor or sublimation pressure
–	1290 ± 20	–
348.12 K	–	0.0001427 ± 7.2e-06 kPa and 0.0001428 ± 7.2e-06 kPa and 0.0001398 ± 7e-06 kPa
350.14 K	–	0.0001731 ± 8.7e-06 kPa and 0.0001683 ± 8.4e-06 kPa and 0.0001668 ± 8.4e-06 kPa
352.15 K	–	0.0002116 ± 1.1e-05 kPa and 0.0002079 ± 1e-05 kPa
354.18 K	–	0.0002587 ± 1.3e-05 kPa and 0.0002577 ± 1.3e-05 kPa and 0.0002582 ± 1.3e-05 kPa
356.2 K	–	0.0003206 ± 1.6e-05 kPa and 0.0003187 ± 1.6e-05 kPa and 0.0003134 ± 1.6e-05 kPa
358.15 K	–	0.0003799 ± 1.9e-05 kPa and 0.0003853 ± 1.9e-05 kPa and 0.0003771 ± 1.9e-05 kPa
360.2 K	–	0.0004783 ± 2.4e-05 kPa and 0.0004761 ± 2.4e-05 kPa and 0.0004538 ± 2.3e-05 kPa
362.14 K	–	0.0005802 ± 2.9e-05 kPa and 0.0005665 ± 2.8e-05 kPa and 0.0005564 ± 2.8e-05 kPa
364.18 K	–	0.0006992 ± 3.5e-05 kPa and 0.0006815 ± 3.4e-05 kPa and 0.000676 ± 3.4e-05 kPa
366.14 K	–	0.0008356 ± 4.2e-05 kPa and 0.0008316 ± 4.2e-05 kPa and 0.000817 ± 4.1e-05 kPa
368.13 K	–	0.0009681 ± 4.8e-05 kPa and 0.001004 ± 0.0001 kPa and 0.0009903 ± 4.9e-05 kPa

O=c1[nH][nH]c(=O)c2ccccc12 [2,3-dihydro-1,4-phthalazinedione]
Details	mass density [kg/m3]	vapor or sublimation pressure
–	1390 ± 20	–
428.18 K	–	0.0001501 ± 7.5e-06 kPa and 0.00015 ± 7.5e-06 kPa and 0.0001468 ± 7.4e-06 kPa
430.16 K	–	0.0001786 ± 8.9e-06 kPa and 0.0001816 ± 9.1e-06 kPa and 0.0001711 ± 8.6e-06 kPa
432.24 K	–	0.0002109 ± 1.1e-05 kPa and 0.000215 ± 1.1e-05 kPa and 0.0002114 ± 1.1e-05 kPa
434.18 K	–	0.0002433 ± 1.2e-05 kPa and 0.0002441 ± 1.2e-05 kPa
436.19 K	–	0.0002898 ± 1.5e-05 kPa and 0.000293 ± 1.5e-05 kPa and 0.0002878 ± 1.4e-05 kPa
438.26 K	–	0.0003477 ± 1.7e-05 kPa and 0.0003523 ± 1.8e-05 kPa and 0.0003443 ± 1.7e-05 kPa
440.19 K	–	0.0004064 ± 2e-05 kPa and 0.0003929 ± 2e-05 kPa
442.17 K	–	0.000473 ± 2.4e-05 kPa and 0.000486 ± 2.4e-05 kPa
444.26 K	–	0.0005785 ± 2.9e-05 kPa and 0.0005761 ± 2.9e-05 kPa
446.19 K	–	0.0006629 ± 3.3e-05 kPa and 0.0006749 ± 3.4e-05 kPa and 0.0006616 ± 3.3e-05 kPa
448.22 K	–	0.0007985 ± 4e-05 kPa and 0.0007997 ± 4e-05 kPa and 0.0007669 ± 3.8e-05 kPa
450.28 K	–	0.0009283 ± 4.6e-05 kPa and 0.0009382 ± 4.7e-05 kPa
